Measurements reported in patent US10294202B2, “Pyrrolidinones as herbicides” (FMC Corporation, priority 2013, dated 2019).

Tests used:
waterhemp = assay: Test C pre-/postemergence herbicide test; type: in vivo, Amaranthus rudis
Outline: (§1)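 Pre- and postemergence greenhouse screen. Preemergence treatment went onto freshly planted seeds in loam–sand soil; postemergence treatment went onto plants 2 to 18 cm tall at the 1- to 4-leaf stage in sphagnum peat/vermiculite medium. Scoring at 13 to 15 days used a 0–100 control scale.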

corn = assay: Test C pre-/postemergence herbicide test; type: in vivo, Zea mays
Outline: as §1

oilseed rape = assay: Test C pre-/postemergence herbicide test; type: in vivo, Brassica napus
Outline: as §1

nutsedge, yellow = assay: Test C pre-/postemergence herbicide test; type: in vivo, Cyperus esculentus
Outline: as §1

foxtail, giant = assay: Test C pre-/postemergence herbicide test; type: in vivo, Setaria faberii
Outline: as §1

pigweed [1] = assay: Test C pre-/postemergence herbicide test; type: in vivo, Amaranthus retroflexus
Outline: as §1

galium = assay: Test C pre-/postemergence herbicide test; type: in vivo, Galium aparine; conditions: Preemergence
Outline: as §1

velvetleaf = assay: Test C pre-/postemergence herbicide test; type: in vivo, Abutilon theophrasti
Outline: as §1

pigweed [2] = assay: Test A pre-/postemergence herbicide test; type: in vivo, Amaranthus retroflexus
Outline: (§2)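 Visual injury ratings, 0 = no effect, 100 = complete control, taken ~10 days after treatment against untreated greenhouse controls. Preemergence: directed soil spray onto seeded loam/sand pots. Postemergence: spray onto plants at one- to two-leaf stage, 2–10 cm tall.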

wheat = assay: Test A pre-/postemergence herbicide test; type: in vivo, Triticum aestivum; conditions: Postemergence
Outline: as §2

johnsongrass = assay: Test C pre-/postemergence herbicide test; type: in vivo, Sorghum halepense
Outline: as §1

lambsquarters = assay: Test C pre-/postemergence herbicide test; type: in vivo, Chenopodium album
Outline: as §1

[3] = Postemergence, 16 g ai/ha, scale 0 to 100 (0 no effect, 100 complete control)
[4] = Postemergence, 31 g ai/ha, scale 0 to 100 (0 no effect, 100 complete control)
[5] = Postemergence, 62 g ai/ha, scale 0 (no effect) to 100 (complete control)
[6] = Postemergence, 125 g ai/ha, scale 0 to 100 (0 no effect, 100 complete control)
[7] = Preemergence, 31 g ai/ha, scale 0 to 100, 0 is no effect and 100 is complete control
[8] = Preemergence, 62 g ai/ha, scale 0 to 100 (0 no effect, 100 complete control)
[9] = Preemergence, 125 g ai/ha, scale 0 to 100 (0 no effect, 100 complete control)
[10] = Preemergence, 16 g ai/ha, scale 0 to 100

## CN1CC(c2ccc(C(F)(F)F)cc2)C(C(=O)Nc2ccccc2F)C1=O (stereo not shown) [Compound 304]
waterhemp; [3]
  Plant response rating, Waterhemp: 40
waterhemp; [4]
  Plant response rating, Waterhemp: 50
waterhemp; [5]
  Plant response rating, Waterhemp: 65
waterhemp; [6]
  Plant response rating, Waterhemp: 80
waterhemp; [7]
  Waterhemp plant response rating: 75
waterhemp; [8]
  Waterhemp plant response rating: 80
waterhemp; [9]
  Plant response rating, Waterhemp: 85
waterhemp; [10]
  Plant response rating, Waterhemp: 70
corn; [3]
  Plant response rating, Corn: 0
corn; [4]
  Plant response rating, Corn: 0
corn; [5]
  Plant response rating, Corn: 0
corn; [6]
  Plant response rating, Corn: 5
corn; [7]
  Corn plant response rating: 0
corn; [8]
  Corn plant response rating: 40
corn; [9]
  Plant response rating, Corn: 65
corn; [10]
  Plant response rating, Corn: 0
Oilseed rape; [3]
  Plant response rating, Oilseed Rape: 0
Oilseed rape; [4]
  Plant response rating, Oilseed Rape: 0
Oilseed rape; [5]
  Plant response rating, Oilseed Rape: 0
Oilseed rape; [6]
  Plant response rating, Oilseed Rape: 0
Oilseed rape; [7]
  Oilseed Rape plant response rating: 50
Oilseed rape; [8]
  Oilseed Rape plant response rating: 55
Oilseed rape; [9]
  Plant response rating, Oilseed Rape: 55
Oilseed rape; [10]
  Plant response rating, Oilseed Rape: 30
nutsedge, yellow; [3]
  Plant response rating, Nutsedge, Yellow: 0
nutsedge, yellow; [4]
  Plant response rating, Nutsedge, Yellow: 0
nutsedge, yellow; [5]
  Plant response rating, Nutsedge, Yellow: 0
nutsedge, yellow; [6]
  Plant response rating, Nutsedge, Yellow: 0
nutsedge, yellow; [7]
  Nutsedge, Yellow plant response rating: 0
nutsedge, yellow; [8]
  Nutsedge, Yellow plant response rating: 25
nutsedge, yellow; [9]
  Plant response rating, Nutsedge, Yellow: 0
nutsedge, yellow; [10]
  Plant response rating, Nutsedge, Yellow: 0
foxtail, giant; [3]
  Plant response rating, Foxtail, Giant: 0
foxtail, giant; [4]
  Plant response rating, Foxtail, Giant: 0
foxtail, giant; [5]
  Plant response rating, Foxtail, Giant: 10
foxtail, giant; [6]
  Plant response rating, Foxtail, Giant: 45
foxtail, giant; [7]
  Foxtail, Giant plant response rating: 90
foxtail, giant; [8]
  Foxtail, Giant plant response rating: 95
foxtail, giant; [9]
  Plant response rating, Foxtail, Giant: 95
foxtail, giant; [10]
  Plant response rating, Foxtail, Giant: 90
Pigweed [1]; [3]
  Plant response rating, Pigweed: 25
Pigweed [1]; [4]
  Plant response rating, Pigweed: 35
Pigweed [1]; [5]
  Plant response rating, Pigweed: 55
Pigweed [1]; [6]
  Plant response rating, Pigweed: 55
Pigweed [1]; [7]
  Pigweed plant response rating: 55
Pigweed [1]; [8]
  Pigweed plant response rating: 75
Pigweed [1]; [9]
  Plant response rating, Pigweed: 85
Pigweed [1]; [10]
  Plant response rating, Pigweed: 40
galium; 31 g ai/ha, scale 0 to 100, 0 is no effect and 100 is complete control
  Galium plant response rating: 85
galium; 62 g ai/ha, scale 0 to 100 (0 no effect, 100 complete control)
  Galium plant response rating: 95
galium; 125 g ai/ha, scale 0 to 100 (0 no effect, 100 complete control)
  Plant response rating, Galium: 85
galium; 16 g ai/ha, scale 0 to 100
  Plant response rating, Galium: 100
velvetleaf; [3]
  Plant response rating, Velvetleaf: 0
velvetleaf; [4]
  Plant response rating, Velvetleaf: 5
velvetleaf; [5]
  Plant response rating, Velvetleaf: 15
velvetleaf; [6]
  Plant response rating, Velvetleaf: 15
velvetleaf; [7]
  Velvetleaf plant response rating: 20
velvetleaf; [8]
  Velvetleaf plant response rating: 35
velvetleaf; [9]
  Plant response rating, Velvetleaf: 50
velvetleaf; [10]
  Plant response rating, Velvetleaf: 0
Pigweed [2]; Postemergence, 125 g ai/ha, visual rating on 0 to 100 scale (0 no effect, 100 complete control), approx. 10 days
  Plant response rating, Pigweed: 40
Pigweed [2]; Postemergence, 500 g ai/ha, 0 to 100 scale (0 no effect, 100 complete control)
  Plant response rating, Pigweed: 60
Pigweed [2]; Preemergence, 125 g ai/ha, 0 to 100 scale where 0 is no effect and 100 is complete control
  Plant response rating, Pigweed: 70
Pigweed [2]; Preemergence, 500 g ai/ha, visual rating on 0 to 100 scale (0 no effect, 100 complete control)
  Pigweed plant response rating: 80
wheat; 125 g ai/ha, visual rating on 0 to 100 scale (0 no effect, 100 complete control), approx. 10 days
  Plant response rating, Wheat: 40
wheat; 500 g ai/ha, 0 to 100 scale (0 no effect, 100 complete control)
  Plant response rating, Wheat: 60
johnsongrass; [3]
  Plant response rating, Johnsongrass: 0
johnsongrass; [4]
  Plant response rating, Johnsongrass: 0
johnsongrass; [5]
  Plant response rating, Johnsongrass: 0
johnsongrass; [6]
  Plant response rating, Johnsongrass: 0
johnsongrass; [7]
  Johnsongrass plant response rating: 0
johnsongrass; [8]
  Johnsongrass plant response rating: 35
johnsongrass; [9]
  Plant response rating, Johnsongrass: 35
johnsongrass; [10]
  Plant response rating, Johnsongrass: 0
lambsquarters; [3]
  Plant response rating, Lambsquarters: 65
lambsquarters; [4]
  Plant response rating, Lambsquarters: 35
lambsquarters; [5]
  Plant response rating, Lambsquarters: 75
lambsquarters; [6]
  Plant response rating, Lambsquarters: 70
lambsquarters; [7]
  Lambsquarters plant response rating: 65
lambsquarters; [8]
  Lambsquarters plant response rating: 70
lambsquarters; [9]
  Plant response rating, Lambsquarters: 80
lambsquarters; [10]
  Plant response rating, Lambsquarters: 30
